Laboratory results published in US10695352B2, “Combination therapy for treating malignancies” (Celgene Corporation, priority 2015, dated 2020).
Read-outs that look alike come from different tables or passages of the source.

Tests used:
[1] = tested on: TF1 IDH2/R140Q cells; details: for RNA expression of differentiation markers KLF1 and HBG: concurrent schedule; for increase in HBG gene expression: COMPOUND 1 0.2 μM, single agents or combination
Experimental: FIG. 2A depicts the effect of the combination of azacitidine and COMPOUND 1 used sequentially on differentiation markers. […] Treated cells were subjected to qRT-PCR (ii) and to HBG qRT-PCR (iii). FIG. 2B depicts the effect of the combination of azacitidine and COMPOUND 1 used concurrently on differentiation markers. […] Treated cells were subjected to qRT-PCR (ii) and to HBG qRT-PCR (iii).
(§1) Measures of cell differentiation, growth and death were evaluated in an engineered TF-1 erythroleukemia cells overexpressing the IDH2/R140Q allele or the empty vector control TF-1/pLVX (Wang et al., Science 340:622-626, 2013). The cells were grown in RPMI containing HEPES and L-glutamine (Lonza 12-115F), 10% FBS (HyClone SH30088.03), Pen/Strep (Life Technologies 15070-063), G418: final concentration 500 μg/ml (Life Technologies 10131-027); GM-CSF: final concentration 5 ng/ml (R&D 215-GM-050). Only newly grown cells were used. G418 and GM-CSF were added fresh to media each time cells were passaged. Media was changed every 2-3 days by pelleting cells and resuspending in fresh media or by adding 2 ml of cells to 10 ml of fresh media. When cells were treated with a compound, the media was changed by pelleting cells to ensure proper concentration of the compound.
The RNA was isolated from cells by RNA easy kit (obtained from Qiagen). 500 ng of RNA was used to make cDNA that was subjected to real-time qPCR to detect fetal hemoglobin (HBG) and KLF-1 gene expression. The RNA easy kit was obtained from Qiagen. cDNA was made from Superscript VILO kit (Life technologies). Taqman probes were obtained from Applied Biosciences.
(§2) Measures of cell differentiation, growth and death were evaluated in TF1-R140Q cells, using an in vitro EPO differentiation assay and dose-schedule paradigms represented in FIG. 1. Cells were treated with vehicle, azacitidine alone, COMPOUND 1 alone, or the combination of azacitidine and COMPOUND 1. In the sequential schedule, cells were pre-treated with azacitidine for three days before adding COMPOUND 1. In the concurrent schedule, cells were co-treated with azacitidine and COMPOUND 1 throughout the assay.

[2] = tested on: TF1-R140Q cells; experiment: Annexin V/7-AAD flow cytometry cell death analysis; format: cell-based; details: concurrent dose-schedule regimen; average values across dose concentrations
Experimental: Annexin V and 7-AAD flow cytometry analysis was performed for sequential (day 18) and concurrent (day 14) dosing schedules. Populations were normalized to DMSO+EPO and fold change of percent Annexin V+ and/or 7-AAD+ was plotted.
Cell death was analyzed via Annexin V/7-AAD flow cytometry at the end of the EPO-differentiation assay (FIGS. 4 and 9). In the sequential dose-schedule regimen, there was no induction (<2-fold) of death (AnnexinV+ and/or 7AAD+) with a single agent. In the concurrent dose-schedule regimen, azacitidine and COMPOUND 1 as single agents increased the percentage of AnnexinV+ and/or 7AAD+ cells by 3.4-fold and 3.5-fold (average values across dose concentrations), respectively.

[3] = tested on: TF-1 R140Q cells; experiment: Real-time growth and apoptosis (Caspase 3/7 dye) on IncuCyte Zoom; format: cell-based; details: for cell growth: COMPOUND 1 1-10 μM
Experimental: The TF-1 R140Q cells were pre-treated in bulk in flasks with 1 μM of QDx3 azacitidine and then plated with COMPOUND 1 concentrations of 10, 3 and 0.3 μM and Caspase 3/7 dye (obtained from Essen Biosciences) to monitor real-time growth and apoptosis on IncuCyte Zoom up to 104 hrs.
The TF-1 R140Q cells were plated with the combination of azacitidine (1 and 0.3 μM) and COMPOUND 1 (1 μM) and imaged for real-time growth and apoptosis on IncuCyte Zoom up to 104 hrs.
A real-time death analysis was performed using IncuCyte Zoom (FIGS. 5 and 6).

[4] = tested on: TF1-R140Q cells; experiment: Hematopoietic stem cell and blast content determination (CD34, CD38, FACS); format: cell-based; details: for CD34+/CD38+ and CD34+/CD38− cell populations: end of EPO-differentiation assay; for decrease of hematopoietic progenitor cells (CD34+/CD38+): sequential treatment, COMPOUND 1 0.2 μM, azacitidine 0.1 μM, single agents or combination
Experimental: Flow cytometry analysis was performed for sequential and concurrent schedules. Hematopoietic progenitor cells (CD34+/CD38+) (i) and stem cells (CD34+/CD38−) (ii) populations were normalized to DMSO+EPO and plotted. Values for population percentage decreases are shown, with those in red font depicting greater than additive effect with the combination as compared to AZA or COMPOUND 1 as single agents.
Cells were blocked in 10×BSA and diluted with MACS rinsing solution to 1× concentration for 15 min (staining buffer, BD Biosciences). Supernatant was removed by spinning. 10 μl of anti-CD34 FITC and anti-CD38 APC antibodies (each in staining buffer) were added. Mouse IgG2a FITC and IgG2a APC were used as isotype controls. Cells were stained for 10 min in dark, the solution was spinned to remove supernatant, the cells were resuspended in 300 μl of staining buffer and proceed to fluorescence-activated cell sorting (FACS).
The hematopoietic stem (CD34+/CD38−) and progenitor (CD34+/CD38+) cell populations were quantified at the end of the EPO-differentiation assay (FIGS. 3 and 8). As single agents, both azacitidine and COMPOUND 1 reduced CD34+/CD38+(FIG. 3i) and CD34+/CD38− (FIG. 3ii) cell populations. […] For example, COMPOUND 1 (0.2 μM) and azacitidine (0.1 μM) as single agents decreased hematopoietic progenitor cells (CD34+/CD38+) by 32% and 7%, respectively, with sequential treatment, while the combination of azacitidine (0.1 μM) and COMPOUND 1 (0.2 μM) decreased the hematopoietic progenitor cell population by 64% (FIG. 3i).

[5] = tested on: TF1 IDH2/R140Q cells; details: for hemoglobin production (coloration/hemoglobinization of cell pellets): day 14, COMPOUND 1 0.2 and 1 μM, azacitidine 0.1 and 0.3 μM; for hemoglobin production (red color of cell pellets): day 18, COMPOUND 1 0.2 μM and 1.0 μM
From the text: FIG. 1 in section A depicts COMPOUND 1 and azacitidine (AZA) combination schedule and dosing paradigms for sequential treatment of: 3 days (QDx3) of pre-treatment with azacitidine followed by treatment with the COMPOUND 1 for one week and erythropoietin (EPO)+COMPOUND 1 for another week. The cells were harvested on Day 18 and subjected to various endpoint assays for monitoring differentiation and death. FIG. 1, in section B depicts COMPOUND 1 and azacitidine combination schedule and dosing paradigms for concurrent treatment of: treatment for 7 days with the combination of azacitidine and COMPOUND 1 followed by 7 days of the treatment with azacitidine, COMPOUND 1 and EPO. The cells were harvested on Day 14 and subjected to various endpoint assays for monitoring differentiation and death.
as §1
F1/pLVX and TF1 IDH2/R140Q cells (100,000 cells/ml) were pretreated for 7 days with COMPOUND 1, azacitidine or combination thereof (medium was changed every 2 days) and washed with PBS to remove residual GM-CSF. Cells were induced to differentiate using EPO (2 unit/ml) in the presence or absence of COMPOUND 1. Induction continued for 7 days and the cell pellets were collected and imaged for hemoglobinization content (as a surrogate for differentiation into blood lineage).
as §2

[6] = cited from earlier work
[7] = oral azacitidine; cited from earlier work
[8] = sequential experiment, azacitidine 1 μM

Structure (SMILES)	RNA expression of differentiation markers KLF1 and HBG [1]	increase in HBG gene expression ([1]; concurrent, azacitidine 1 μM)	increase in HBG gene expression ([1]; sequential, azacitidine 0.3 μM)	increase in percentage of AnnexinV+ and/or 7AAD+ cells [2]	cell growth [3, 8]	caspase 3/7 death measure ([3]; summary, single agent, or concurrent combination)	CD34+/CD38+ and CD34+/CD38− cell populations [4]	decrease of hematopoietic progenitor cells (CD34+/CD38+) [4]	hemoglobin production (coloration/hemoglobinization of cell pellets) ([5]; concurrent dosing regimen)	time to observe increased red color of cells (haem production) post-EPO ([5]; sequential schedule)	hemoglobin production (red color of cell pellets) ([5]; sequential schedule)	solubility ([6]; dimethylsulfoxide (DMSO))	solubility ([6]; ethanol/water (50/50), methanol/water (50/50) and methanol)	solubility ([6]; water)	solubility ([6]; acetone, ethanol and methyl ketone)	solubility ([6]; ethanol/water (50/50), propylene glycol and polyethylene glycol)	solubility ([6]; water, water-saturated octanol, 5% dextrose in water, N-methyl-2-pyrrolidone, normal saline and 5% Tween 80 in water)	apoptosis [3, 8]	cell death as evidenced by decreased cell pellet sizes ([5]; concurrent dosing regimen, azacitidine 1 μM)	maximum tolerated dose [7]
CC(C)(O)CNc1nc(Nc2ccnc(C(F)(F)F)c2)nc(-c2cccc(C(F)(F)F)n2)n1 [COMPOUND 1, 2-methyl-1-[(4-[6-(trifluoromethyl)pyridin-2-yl]-6-{[2-(trifluoromethyl)pyridin-4-yl]amino}-1,3,5-triazin-2-yl)amino]propan-2-ol]	Dose-dependent increases	2.5 fold	241 fold	3.5 fold	no effect on cell growth	no effect	reduced	32%	increased hemoglobin production upon EPO differentiation in a dose-dependent manner	7 days	increased hemoglobin production in a dose-dependent manner	–	–	–	–	–	–	–	–	–
Nc1ncn([C@H]2C[C@H](O)[C@@H](CO)O2)c(=O)n1 [Decitabine, 4-amino-1-(2-deoxy-β-D-erythro-pentofuranosyl)-1,3,5-triazin-2(1H)one]	–	–	–	–	–	–	–	–	–	–	–	soluble	slightly soluble	sparingly soluble	–	–	–	–	–	–
Nc1ncn([C@@H]2O[C@H](CO)[C@@H](O)[C@H]2O)c(=O)n1 [azacitidine, 4-amino-1-O-D-ribofuranozyl-s-triazin-2(1H)-one]	Dose-dependent increases	7.1 fold	92 fold	3.4 fold	reduced growth	–	reduced	7%	increased hemoglobin production	–	little or no effect on cell pellet color	soluble	–	–	insoluble	slightly soluble	sparingly soluble	increased apoptosis	cell death occurred	480 mg
